From PubChem BioAssay (NCI) come the findings set out here.

Some test systems named below: COLO 205 colon; HOP-92 NSCLC; LOX IMVI melanoma; M14 melanoma; NCI-H23 lung; OVCAR-4 ovarian; SK-MEL-28 melanoma; SK-OV-3 ovarian; SN12C renal; SW-620 colon; UACC-62 melanoma.
Common to all, as to test: growth of human tumour cells (NCI), 48 h

Values joined by “and” are separate entries in the source; they are usually repeats but may differ in a detail not shown here. Equal values may be shown once.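 All cell lines were grown in 96-well plates and treated with compound for 48 hours. Definition used: TGI = concentration required for complete inhibition of growth.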

Take `COC(=O)C1OC(O[C@H]2CC[C@]3(C)[C@H]4CC=C5[C@@H]6CC(C)(C)CC[C@]6(C(=O)OC6OCC(O)C(O)C6OC6OC(C)C(OC7OCC(O)C(OC8OCC(O)C(O)C8O)C7O)C(OC7OCC(O)C(O)C7O)C6O)CC[C@@]5(C)[C@]4(C)CC[C@H]3C2(C)C)C(O)C(OC2OCC(O)C(O)C2O)C1O` (stereo partly drawn): the TGI was 2.97 µM and 3.08 µM in the test with COLO 205 colon; 5.25 µM and 7.62 µM in the test on HOP-92 NSCLC; 26.5 µM and 21.6 µM with LOX IMVI melanoma; 3.7 µM and 5.19 µM in the test on M14 melanoma; > 36.7 µM and 16.2 µM with NCI-H23 lung; > 100 µM and 20.2 µM in the test on OVCAR-4 ovarian. The TGI is 4.02 µM and 6.16 µM with SK-MEL-28 melanoma; > 100 µM and 27.8 µM in the test with SK-OV-3 ovarian; 5.4 µM and 5.69 µM in the test with SN12C renal; > 100 µM and 24 µM with SW-620 colon; 8.36 µM and 13.7 µM in the test on UACC-62 melanoma.
For `O=C(c1ccccc1)c1ccc(-n2c3ccccc3c3ccc4c(c32)C(=O)C=CC4=O)cc1`, the TGI in the test on COLO 205 colon was 25.9 µM; in the test on HOP-92 NSCLC, 18.6 µM; in the test with LOX IMVI melanoma, 16.3 µM; in the test with M14 melanoma, 23.6 µM; in the test on NCI-H23 lung, 29.5 µM; with OVCAR-4 ovarian, 31.8 µM. Besides, the TGI in the test on SK-MEL-28 melanoma was determined as 30.1 µM; in the test on SK-OV-3 ovarian, 42.9 µM; in the test on SN12C renal, 28.3 µM; in the test with SW-620 colon, 30.1 µM; in the test on UACC-62 melanoma it was 26.7 µM.
Consider `c1ccc(-n2nc3ccc4nonc4c3n2)cc1`, for which the TGI in the test on COLO 205 colon, in the test on HOP-92 NSCLC, in the test with LOX IMVI melanoma, in the test on M14 melanoma, in the test on NCI-H23 lung and in the test on OVCAR-4 ovarian was more than 100 µM in each case. For the same molecule, the TGI in the test on SK-MEL-28 melanoma, in the test with SK-OV-3 ovarian, with SN12C renal, in the test with SW-620 colon and in the test with UACC-62 melanoma was more than 100 µM each time.
